Paper PMC7559231, “Drug-induced cholestasis assay in primary hepatocytes” (MethodsX, 2020)
Like-named read-outs stand apart in the source and are kept apart here.

Columns and labels:
[1] = system: sandwich-cultured human hepatocytes; assay: Drug-induced cholestasis (DIC) assay: urea formation in sandwich-cultured human hepatocytes with and without the bile salt mixture; conditions: lowest in vitro concentration with DICI < 0.78 / Cmax,total; for DICI-based SM obtained with the ‘original’ LOAEL method 24 h: 24 h incubation; for DICI-based SM obtained with the ‘original’ LOAEL method 48 h: 48 h incubation
Source text: Drug-induced cholestasis (DIC) is a major cause of attrition during drug development and post-marketing withdrawal. Early detection of DIC is crucial for avoiding financial losses and improving drug safety. Preclinical assays for DIC detection often rely on evaluation of the test compound towards individual cellular targets such as their inhibitory potential towards the bile salt export pump (BSEP) by using BSEP membrane vesicles. However, the underlying mechanisms of DIC development are more complex involving multiple other transporters and nuclear receptors. A more comprehensive in vitro model such as sandwich-cultured human hepatocytes (SCHH) are more suited due to the presence of metabolizing enzymes and transporters relevant to bile salt disposition. The assay described here relies on changes in the ability of SCHH to produce urea from ammonia in the absence and presence of a (patho-)physiologically relevant bile salt mixture. Ammonia is detoxified in the hepatocyte by the urea cycle to form non-toxic urea. Measuring changes in urea production allows for the quantitative evaluation of the hepatocyte's biochemical and functional integrity. The colorimetric quantitation of urea formation is based on the reaction between urea and diacetylmonoxime.
By determining the ratio of urea formation after incubation with test compound in absence and in presence of the bile salt mixture, the DIC index (DICI) value can be calculated. […] It was previously established that a compound with a SM below 30 can be considered to display increased risk for causing cholestasis in the clinic.
If longer incubations are required (e.g. 48 h), the medium is changed again after 24 h (day 6) with fresh medium containing the same initial concentrations of test compound and bile salts as 24 h before.
• Solution 1: culture medium with no compound and 0.2% DMSO. […] This solution should be filtered through a 0.2 µm filter and prewarmed for 30 min at 37°C. • Solution 4: culture medium with double concentrated test compound. […] This solution should be filtered through a 0.2 µm filter and prewarmed for 30 min at 37°C. • Solution 5: control medium with bile salts, prepared by mixing solution 1 and solution 2 in a 1:1 ratio. • Solution 6: culture medium with positive control without bile salts, prepared by mixing solution 1 and solution 3 in a 1:1 ratio. • Solution 7: culture medium with positive control with bile salts, prepared by mixing solution 2 and solution 3 in a 1:1 ratio. • Solution 8: culture medium with test compound without bile salts, prepared by mixing solution 1 and solution 4 in a 1:1 ratio. • Solution 9: culture medium with test compound with bile salts, prepared by mixing solution 2 and solution 4 in a 1:1 ratio.
• 1. On day 5, aspirate the medium and preincubate the cells with solution 1, solution 6 or solution 8 for 2 h. Note: this preincubation step is performed to enable the compounds to interact with the cellular machinery. • 2. After 2 h, aspirate the medium and immediately incubate the cells with solution 1, solution 5, solution 6, solution 7, solution 8 or solution 9 for 22 h.
The urea assay is performed on day 6 or day 7 for 24 h and 48 h incubations, respectively.
• Solutions for the color reagent. […] Note: perform this procedure on ice as this is an exothermic reaction. Wear appropriate protective gear. • ○ Solution B prepared by mixing the thiosemicarbazide solution and the diacetyl monoxime in a 1:1 ratio. • Incubation buffer: HBSS containing 10 mM HEPES, 2 mM glutamine, 10 mM ammonium chloride and 3 mM ornithine, filtered through a 0.2 µm filter and prewarmed at 37°C. • 96-well thermostable plate with aluminum cover slip.
• 1. Aspirate the culture medium. • 2. Wash the wells twice with 250 µL prewarmed incubation buffer. Aspirate the remaining buffer. • 3. Add 125 µL prewarmed incubation buffer to each well and keep the plate at 37°C for 1 h. • 4.

[2] = system: sandwich-cultured human hepatocytes; conditions: SCHH, ref [6],[7], cited from earlier work; for DICI 24 h Mean: 24 h exposure; for DICI 48 h Mean: 48 h exposure
[3] = design: method as in per compound in column References of Table 3 ([3], [24]-[44]); conditions: mean total peak plasma concentration in humans; ref per compound in Table 3 ([3], [24]-[44]); cited from earlier work

COC(=O)N[C@H](C(=O)N[C@@H](Cc1ccccc1)[C@@H](O)CN(Cc1ccc(-c2ccccn2)cc1)NC(=O)[C@@H](NC(=O)OC)C(C)(C)C)C(C)(C)C [Atazanavir, atazanavir]
DICI-based SM obtained with the ‘original’ LOAEL method 24 h [1]: 31.12
DICI-based SM obtained with the ‘original’ LOAEL method 48 h [1]: 31.12
DICI 24 h Mean ([2]; 50 µM test compound): 0.87
DICI 48 h Mean ([2]; 50 µM test compound): 0.86
DICI 24 h Mean ([2]; 150 µM test compound): 1.19
DICI 48 h Mean ([2]; 150 µM test compound): 0.73
Cmax,total [3]: 4.82 µM

COc1ccccc1Oc1c(NS(=O)(=O)c2ccc(C(C)(C)C)cc2)nc(-c2ncccn2)nc1OCCO [Bosentan, bosentan]
DICI-based SM obtained with the ‘original’ LOAEL method 24 h [1]: 27.06
DICI-based SM obtained with the ‘original’ LOAEL method 48 h [1]: 27.06
DICI 24 h Mean ([2]; 50 µM test compound): 1.07
DICI 48 h Mean ([2]; 50 µM test compound): 1.06
DICI 24 h Mean ([2]; 100 µM test compound): 0.99
DICI 48 h Mean ([2]; 100 µM test compound): 0.87
DICI 24 h Mean ([2]; 200 µM test compound): 1.15
DICI 48 h Mean ([2]; 200 µM test compound): 1.02
Cmax,total [3]: 7.39 µM

O=C1CC2(CCCC2)CC(=O)N1CCCCN1CCN(c2ncccn2)CC1 [Buspirone, buspirone]
DICI-based SM obtained with the ‘original’ LOAEL method 24 h [1]: 5000
DICI-based SM obtained with the ‘original’ LOAEL method 48 h [1]: 15000
DICI 24 h Mean ([2]; 0.5 µM test compound): 0.69
DICI 48 h Mean ([2]; 0.5 µM test compound): 0.82
DICI 24 h Mean ([2]; 1 µM test compound): 0.87
DICI 48 h Mean ([2]; 1 µM test compound): 0.90
DICI 24 h Mean ([2]; 5 µM test compound): 0.74
DICI 48 h Mean ([2]; 5 µM test compound): 0.95
DICI 24 h Mean ([2]; 10 µM test compound): 0.82
DICI 48 h Mean ([2]; 10 µM test compound): 0.95
DICI 24 h Mean ([2]; 25 µM test compound): 0.84
DICI 48 h Mean ([2]; 25 µM test compound): 0.71
DICI 24 h Mean ([2]; 50 µM test compound): 0.68
DICI 48 h Mean ([2]; 50 µM test compound): 0.48
DICI 24 h Mean ([2]; 150 µM test compound): 0.53
DICI 48 h Mean ([2]; 150 µM test compound): 0.37
Cmax,total [3]: 0.01 µM

CN(C)CCCN1c2ccccc2Sc2ccc(Cl)cc21 [Chlorpromazine, chlorpromazine]
DICI-based SM obtained with the ‘original’ LOAEL method 24 h [1]: 265.96
DICI 24 h Mean ([2]; 10 µM test compound): 0.48
Cmax,total [3]: 0.0376 µM

CCN(CC)C(=O)/C(C#N)=C/c1cc(O)c(O)c([N+](=O)[O-])c1 [Entacapone, entacapone]
DICI-based SM obtained with the ‘original’ LOAEL method 24 h [1]: 29.95
DICI-based SM obtained with the ‘original’ LOAEL method 48 h [1]: 29.95
DICI 24 h Mean ([2]; 10 µM test compound): 1.11
DICI 48 h Mean ([2]; 10 µM test compound): 1.02
DICI 24 h Mean ([2]; 30 µM test compound): 1.07
DICI 48 h Mean ([2]; 30 µM test compound): 0.98
DICI 24 h Mean ([2]; 130 µM test compound): 0.62
DICI 48 h Mean ([2]; 130 µM test compound): 0.10
Cmax,total [3]: 4.34 µM

CC[C@H]1OC(=O)[C@H](C)[C@@H](O[C@H]2C[C@@](C)(OC)[C@@H](O)[C@H](C)O2)[C@H](C)[C@@H](O[C@@H]2O[C@H](C)C[C@H](N(C)C)[C@H]2O)[C@](C)(O)C[C@@H](C)C(=O)[C@H](C)[C@@H](O)[C@]1(C)O [Erythromycin, erythromycin]
DICI-based SM obtained with the ‘original’ LOAEL method 24 h [1]: 50.38
DICI 24 h Mean ([2]; 50 µM test compound): 0.94
DICI 24 h Mean ([2]; 100 µM test compound): 1.29
DICI 24 h Mean ([2]; 200 µM test compound): 1.42
Cmax,total [3]: 3.97 µM

O=c1[nH]c(=O)n([C@@H]2O[C@H](CO)[C@@H](O)[C@@H]2F)cc1I [Fialuridine, fialuridine]
DICI-based SM obtained with the ‘original’ LOAEL method 24 h [1]: 468.75
DICI 24 h Mean ([2]; 10 µM test compound): 0.88
DICI 48 h Mean ([2]; 10 µM test compound): 0.92
DICI 24 h Mean ([2]; 20 µM test compound): 0.94
DICI 48 h Mean ([2]; 20 µM test compound): 0.79
DICI 24 h Mean ([2]; 30 µM test compound): 0.95
DICI 48 h Mean ([2]; 30 µM test compound): 1.26
DICI 24 h Mean ([2]; 50 µM test compound): 0.79
DICI 48 h Mean ([2]; 50 µM test compound): 1.19
DICI 24 h Mean ([2]; 100 µM test compound): 1.12
DICI 48 h Mean ([2]; 100 µM test compound): 0.89
DICI 24 h Mean ([2]; 300 µM test compound): 0.82
DICI 48 h Mean ([2]; 300 µM test compound): 0.96
Cmax,total [3]: 0.64 µM

CN(C)C(=N)N=C(N)N [Metformin, metformin]
DICI 24 h Mean ([2]; 150 µM test compound): 1.09
DICI 48 h Mean ([2]; 150 µM test compound): 1.34
DICI 24 h Mean ([2]; 300 µM test compound): 1.03
DICI 48 h Mean ([2]; 300 µM test compound): 1.26
DICI 24 h Mean ([2]; 900 µM test compound): 1.12
DICI 48 h Mean ([2]; 900 µM test compound): 1.18
Cmax,total [3]: 7.75 µM

C1CCC(C(CC2CCCCN2)C2CCCCC2)CC1 (centres unmarked) [Perhexiline, perhexiline]
DICI-based SM obtained with the ‘original’ LOAEL method 24 h [1]: 30.09
DICI-based SM obtained with the ‘original’ LOAEL method 48 h [1]: 30.09
DICI 24 h Mean ([2]; 3 µM test compound): 1.00
DICI 48 h Mean ([2]; 3 µM test compound): 0.80
DICI 24 h Mean ([2]; 9 µM test compound): 1.03
DICI 48 h Mean ([2]; 9 µM test compound): 0.98
DICI 24 h Mean ([2]; 65 µM test compound): 1.10
DICI 48 h Mean ([2]; 65 µM test compound): 1.02

CC(C)c1nc(CN(C)C(=O)N[C@H](C(=O)N[C@@H](Cc2ccccc2)C[C@H](O)[C@H](Cc2ccccc2)NC(=O)OCc2cncs2)C(C)C)cs1 [Ritonavir, ritonavir]
Cmax,total [3]: 13.24 µM

CN(CCOc1ccc(CC2SC(=O)NC2=O)cc1)c1ccccn1 (centres unmarked) [Rosiglitazone, rosiglitazone]
DICI-based SM obtained with the ‘original’ LOAEL method 24 h [1]: 56.31

Clc1ccccc1CN1CCc2sccc2C1 [Ticlopidine, ticlopidine]
Cmax,total [3]: 2.898 µM

CO[C@H]1C[C@H](O[C@H]2[C@H](C)[C@@H](O[C@@H]3O[C@H](C)C[C@H](N(C)C)[C@H]3OC(C)=O)[C@@H](C)C[C@@]3(CO3)C(=O)[C@H](C)[C@@H](OC(C)=O)[C@@H](C)[C@@H](C)OC(=O)[C@@H]2C)O[C@@H](C)[C@@H]1OC(C)=O [Troleandomycin, troleandomycin]
DICI 24 h Mean ([2]; 10 µM test compound): 1.00
DICI 48 h Mean ([2]; 10 µM test compound): 0.83
DICI 24 h Mean ([2]; 12.5 µM test compound): 1.41
DICI 24 h Mean ([2]; 20 µM test compound): 1.12
DICI 48 h Mean ([2]; 20 µM test compound): 0.91
DICI 24 h Mean ([2]; 25 µM test compound): 1.13
DICI 24 h Mean ([2]; 50 µM test compound): 0.93
DICI 24 h Mean ([2]; 100 µM test compound): 0.97

CC(=O)CC(c1ccccc1)c1c(O)c2ccccc2oc1=O (centres unmarked) [Warfarin, warfarin]
DICI-based SM obtained with the ‘original’ LOAEL method 24 h [1]: 71.74
DICI 24 h Mean ([2]; 500 µM test compound): 1.31
